Measurements from US20260078122A1, “INDAZOLE COMPOUNDS AS PKMYT1 KINASE INHIBITORS” (Hoffmann-La Roche Inc., priority 2023, published 2026).

How the values were obtained:
[1] = Human microsome stability assay; details: 1 μM compound, 0.5 mg/mL liver microsomal protein, 1 mM NADPH, 37° C., 0-30 minutes
[2] = biological target: T1, recombinant human Myt1 (full length PKMYT1) (Homo sapiens, UniProt Q99640); assay: ADP-Glo assay (Myt1 kinase activity)
T1 sequence (Q99640 1-499): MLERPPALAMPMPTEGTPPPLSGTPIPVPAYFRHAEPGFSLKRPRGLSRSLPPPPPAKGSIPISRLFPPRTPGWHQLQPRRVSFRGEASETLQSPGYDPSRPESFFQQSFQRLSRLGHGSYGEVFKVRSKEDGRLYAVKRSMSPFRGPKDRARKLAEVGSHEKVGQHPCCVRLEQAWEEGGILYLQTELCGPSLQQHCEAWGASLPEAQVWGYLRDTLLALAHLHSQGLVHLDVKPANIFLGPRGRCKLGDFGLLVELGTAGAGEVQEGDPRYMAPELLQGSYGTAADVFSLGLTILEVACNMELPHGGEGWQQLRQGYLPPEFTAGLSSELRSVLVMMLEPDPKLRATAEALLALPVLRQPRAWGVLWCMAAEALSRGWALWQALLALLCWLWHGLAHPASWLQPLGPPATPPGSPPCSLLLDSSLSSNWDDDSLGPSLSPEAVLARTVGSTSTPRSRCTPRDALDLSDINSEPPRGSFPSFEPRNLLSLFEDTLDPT

| Clearance of Human microsome [1] [mL/min/kg] | IC50 [2] [nM] | SMILES |
| --- | --- | --- |
| 6.15 | < 10 | Cc1nc(C)c2[nH]c(=O)c(N)c(-c3ccc(F)c4[nH]ncc34)c2n1 [Example 084, 7-Amino-8-(7-fluoro-1H-indazol-4-yl)-2,4-dimethyl-5H-pyrido[3,2-d]pyrimidin-6-one] |
| 6.15 | 14.4 | Cc1cc2[nH]c(=O)c(N)c(-c3ccc(F)c4[nH]ncc34)c2nc1C#N [Example 092, 7-Amino-8-(7-fluoro-1H-indazol-4-yl)-3-methyl-6-oxo-5H-1,5-naphthyridine-2-carbonitrile] |
| 6.15 | 13 | Cc1cc(Cl)c2[nH]c(=O)c(N)c(-c3ccc(F)c4[nH]ncc34)c2n1 [Example 090, 3-Amino-8-chloro-4-(7-fluoro-1H-indazol-4-yl)-6-methyl-1H-1,5-naphthyridin-2-one] |
| 7.13 | 22.3 | Cc1cc2c(-c3ccc(F)c4[nH]ncc34)c(N)c(=O)[nH]c2nc1C [Example 107, 3-Amino-4-(7-fluoro-1H-indazol-4-yl)-6,7-dimethyl-1H-1,8-naphthyridin-2-one] |
| 6.20 | 14.7 | Cc1ncc(OC(C)C)c2c(-c3ccc(F)c4[nH]ncc34)c(N)c(=O)[nH]c12 [Example 182, 3-Amino-4-(7-fluoro-1H-indazol-4-yl)-5-isopropoxy-8-methyl-1H-1,7-naphthyridin-2-one] |
| 6.15 | 17.7 | CCOC(=O)COc1nc2c(-c3ccc(F)c4[nH]ncc34)c(N)c(=O)[nH]c2cc1C [Example 061, Ethyl 2-[[7-amino-8-(7-fluoro-1H-indazol-4-yl)-3-methyl-6-oxo-5H-1,5-naphthyridin-2-yl]oxy]acetate] |
| 6.15 | 18.4 | Cc1c([S+](C)[O-])cnc2c(-c3ccc(F)c4[nH]ncc34)c(N)c(=O)[nH]c12 (centres unmarked) [Example 142, 3-Amino-4-(7-fluoro-1H-indazol-4-yl)-8-methyl-7-methylsulfinyl-1H-1,5-naphthyridin-2-one] |
| 6.15 | 16.7 | Cc1nc2c(-c3ccc(F)c4[nH]ncc34)c(N)c(=O)[nH]c2c(C)c1C [Example 110, 3-Amino-4-(7-fluoro-1H-indazol-4-yl)-6,7,8-trimethyl-1H-1,5-naphthyridin-2-one] |
| 6.15 | < 10 | Cc1cnc(Cl)c2c(-c3ccc(F)c4[nH]ncc34)c(N)c(=O)[nH]c12 [Example 164, 3-Amino-5-chloro-4-(7-fluoro-1H-indazol-4-yl)-8-methyl-1H-1,6-naphthyridin-2-one] |
| 6.15 | 14 | Cc1cc(Cl)nc2c(-c3ccc(F)c4[nH]ncc34)c(N)c(=O)[nH]c12 [Example 091, 3-Amino-6-chloro-4-(7-fluoro-1H-indazol-4-yl)-8-methyl-1H-1,5-naphthyridin-2-one] |
| 8.06 | – | Nc1c(-c2ccc(F)c3[nH]ncc23)c2ncc(-c3nccs3)cc2[nH]c1=O [Example 016, 3-Amino-4-(7-fluoro-1H-indazol-4-yl)-7-thiazol-2-yl-1H-1,5-naphthyridin-2-one] |
| 6.15 | 11 | Cc1c(S(C)(=O)=O)cnc2c(-c3ccc(F)c4[nH]ncc34)c(N)c(=O)[nH]c12 [Example 143, 3-Amino-4-(7-fluoro-1H-indazol-4-yl)-8-methyl-7-methylsulfonyl-1H-1,5-naphthyridin-2-one] |
| 6.15 | < 10 | Cc1c(C(C)(F)F)cnc2c(-c3ccc(F)c4[nH]ncc34)c(N)c(=O)[nH]c12 [Example 134, 3-Amino-7-(1,1-difluoroethyl)-4-(7-fluoro-1H-indazol-4-yl)-8-methyl-1H-1,5-naphthyridin-2-one] |
| 6.15 | 17.2 | Cc1c(-c2ccnnc2)cnc2c(-c3ccc(F)c4[nH]ncc34)c(N)c(=O)[nH]c12 [Example 120, 3-Amino-4-(7-fluoro-1H-indazol-4-yl)-8-methyl-7-pyridazin-4-yl-1H-1,5-naphthyridin-2-one] |
| 6.15 | 14.7 | Cc1nc(C2CC2)cc2[nH]c(=O)c(N)c(-c3ccc(F)c4[nH]ncc34)c12 [Example 166, 3-Amino-7-cyclopropyl-4-(7-fluoro-1H-indazol-4-yl)-5-methyl-1H-1,6-naphthyridin-2-one] |
| 6.15 | 14 | Cc1cc2[nH]c(=O)c(N)c(-c3ccc(F)c4[nH]ncc34)c2nc1C#CC1COCC1O (centres unmarked) [Example 073, 3-Amino-4-(7-fluoro-1H-indazol-4-yl)-6-[2-(4-hydroxytetrahydrofuran-3-yl)ethynyl]-7-methyl-1H-1,5-naphthyridin-2-one] |

The next lines start with the compound.

| SMILES | Clearance of Human microsome [1] [mL/min/kg] | IC50 [2] [nM] |
| --- | --- | --- |
| COc1ncc(C)c2[nH]c(=O)c(N)c(-c3ccc(F)c4[nH]ncc34)c12 [Example 172, 3-Amino-4-(7-fluoro-1H-indazol-4-yl)-5-methoxy-8-methyl-1H-1,6-naphthyridin-2-one] | 6.20 | 10.9 |
| Cc1nc(C#N)c2c(-c3ccc(F)c4[nH]ncc34)c(N)c(=O)[nH]c2c1C [Example 161, 3-Amino-4-(7-fluoro-1H-indazol-4-yl)-7,8-dimethyl-2-oxo-1H-1,6-naphthyridine-5-carbonitrile] | 6.15 | 15.5 |
| Cc1c(C2COC2)cnc2c(-c3ccc(F)c4[nH]ncc34)c(N)c(=O)[nH]c12 [Example 122, 3-Amino-4-(7-fluoro-1H-indazol-4-yl)-8-methyl-7-(oxetan-3-yl)-1H-1,5-naphthyridin-2-one] | 6.15 | < 10 |
| Cc1c(C#N)cnc2c(-c3ccc(F)c4[nH]ncc34)c(N)c(=O)[nH]c12 [Example 118, 7-Amino-8-(7-fluoro-1H-indazol-4-yl)-4-methyl-6-oxo-5H-1,5-naphthyridine-3-carbonitrile] | 6.15 | 17.8 |
| Cc1ncc(OC(F)F)c2c(-c3ccc(F)c4[nH]ncc34)c(N)c(=O)[nH]c12 [Example 185, 3-Amino-5-(difluoromethoxy)-4-(7-fluoro-1H-indazol-4-yl)-8-methyl-1H-1,7-naphthyridin-2-one] | 6.15 | 11.4 |
| Cc1cc2[nH]c(=O)c(N)c(-c3ccc(F)c4[nH]ncc34)c2nc1C#CC(C)O (centres unmarked) [Example 074, 3-Amino-4-(7-fluoro-1H-indazol-4-yl)-6-(3-hydroxybut-1-ynyl)-7-methyl-1H-1,5-naphthyridin-2-one] | 6.15 | 11 |
| Cc1cc2[nH]c(=O)c(N)c(-c3ccc(F)c4[nH]ncc34)c2nc1C1CN(C)C1 [Example 098, 3-Amino-4-(7-fluoro-1H-indazol-4-yl)-7-methyl-6-(1-methylazetidin-3-yl)-1H-1,5-naphthyridin-2-one] | 7.72 | 18.7 |
| Cc1cc2[nH]c(=O)c(N)c(-c3ccc(F)c4[nH]ncc34)c2nc1C1CCN(C)CC1 [Example 082, 3-Amino-4-(7-fluoro-1H-indazol-4-yl)-7-methyl-6-(1-methyl-4-piperidyl)-1H-1,5-naphthyridin-2-one] | 6.15 | 16.4 |
| Cc1cc2[nH]c(=O)c(N)c(-c3ccc(F)c4[nH]ncc34)c2nc1C#CCN1CCOCC1 [Example 076, 3-Amino-4-(7-fluoro-1H-indazol-4-yl)-7-methyl-6-(3-morpholinoprop-1-ynyl)-1H-1,5-naphthyridin-2-one] | 8.12 | 14.8 |
| Cc1cc2[nH]c(=O)c(N)c(-c3ccc(F)c4[nH]ncc34)c2nc1N1CCNCC1 [Example 044, 3-Amino-4-(7-fluoro-1H-indazol-4-yl)-7-methyl-6-piperazin-1-yl-1H-1,5-naphthyridin-2-one] | 6.15 | – |
| Cc1cnc2c(-c3cccc4[nH]ncc34)c(N)c(=O)[nH]c2c1 [Example 033, 3-Amino-4-(1H-indazol-4-yl)-7-methyl-1H-1,5-naphthyridin-2-one] | 6.22 | – |
| Cc1nc2c(-c3ccc(F)c4[nH]ncc34)c(N)c(=O)[nH]c2c(C)c1Cl [Example 056, 3-Amino-7-chloro-4-(7-fluoro-1H-indazol-4-yl)-6,8-dimethyl-1H-1,5-naphthyridin-2-one] | 7.47 | – |
| Cc1c(N2CCC2)cnc2c(-c3ccc(F)c4[nH]ncc34)c(N)c(=O)[nH]c12 [Example 117, 3-Amino-7-(azetidin-1-yl)-4-(7-fluoro-1H-indazol-4-yl)-8-methyl-1H-1,5-naphthyridin-2-one] | 7.72 | 14.9 |
| Cc1cc2[nH]c(=O)c(N)c(-c3ccc(F)c4[nH]ncc34)c2nc1C1CCNCC1 [Example 069, 3-Amino-4-(7-fluoro-1H-indazol-4-yl)-7-methyl-6-(4-piperidyl)-1H-1,5-naphthyridin-2-one] | 7.78 | 10.9 |
